Results on 24 molecules are retold here after patent US9624214B2, “Amino-substituted imidazo[1,2-a]pyridinecarboxamides and their use” (BAYER PHARMA AKTIENGESELLSCHAFT, priority 2012, dated 2017).

The target in this assay is T1, recombinant guanylate cyclase reporter cell line (Rattus norvegicus, UniProt P19686+P20595).
T1 construct: expressed in transfected cells
T1 sequence (P20595 1-619): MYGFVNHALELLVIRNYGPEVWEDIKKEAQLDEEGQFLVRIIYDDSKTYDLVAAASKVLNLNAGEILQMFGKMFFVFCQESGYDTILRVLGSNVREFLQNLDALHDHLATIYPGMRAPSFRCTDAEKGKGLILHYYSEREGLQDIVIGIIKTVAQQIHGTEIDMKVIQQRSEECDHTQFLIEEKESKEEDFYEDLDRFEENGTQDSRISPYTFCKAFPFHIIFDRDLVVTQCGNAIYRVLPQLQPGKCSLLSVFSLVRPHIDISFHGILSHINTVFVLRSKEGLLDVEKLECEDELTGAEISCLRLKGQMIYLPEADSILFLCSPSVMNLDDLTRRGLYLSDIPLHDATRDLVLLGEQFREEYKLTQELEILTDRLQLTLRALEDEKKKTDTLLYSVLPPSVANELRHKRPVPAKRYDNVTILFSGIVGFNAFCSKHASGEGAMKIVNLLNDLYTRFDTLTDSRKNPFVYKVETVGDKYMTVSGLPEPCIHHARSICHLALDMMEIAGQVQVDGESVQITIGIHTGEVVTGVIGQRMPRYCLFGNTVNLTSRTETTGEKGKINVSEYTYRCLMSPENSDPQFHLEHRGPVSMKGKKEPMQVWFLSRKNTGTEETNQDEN
T1 sequence (P19686 1-690): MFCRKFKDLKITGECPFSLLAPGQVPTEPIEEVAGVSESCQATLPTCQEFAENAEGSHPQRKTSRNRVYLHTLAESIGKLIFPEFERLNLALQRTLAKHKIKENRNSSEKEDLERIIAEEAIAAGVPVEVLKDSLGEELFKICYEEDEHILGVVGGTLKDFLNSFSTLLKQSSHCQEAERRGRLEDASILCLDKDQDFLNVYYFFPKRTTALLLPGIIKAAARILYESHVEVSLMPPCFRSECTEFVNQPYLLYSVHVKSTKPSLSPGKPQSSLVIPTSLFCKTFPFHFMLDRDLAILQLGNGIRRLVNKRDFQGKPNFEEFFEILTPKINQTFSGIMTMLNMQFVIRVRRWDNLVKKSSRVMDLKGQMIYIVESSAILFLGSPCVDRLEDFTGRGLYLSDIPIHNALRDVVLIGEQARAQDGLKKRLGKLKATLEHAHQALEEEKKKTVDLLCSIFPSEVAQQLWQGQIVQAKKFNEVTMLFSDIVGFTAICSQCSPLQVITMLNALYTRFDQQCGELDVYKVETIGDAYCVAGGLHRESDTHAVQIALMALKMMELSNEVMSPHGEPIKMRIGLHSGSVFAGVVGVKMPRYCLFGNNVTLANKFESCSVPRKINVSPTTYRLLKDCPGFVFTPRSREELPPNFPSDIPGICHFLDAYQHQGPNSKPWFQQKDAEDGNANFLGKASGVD
The assay can be described thus: B-2. Action on recombinant guanylate cyclase reporter cell line. The assay is classed as cell-based. As to conditions: MEC = minimal effective concentration; in some cases mean values from individual determinations. The method, boiled down:
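MEC values, meaning the lowest concentration producing a detectable response, were taken from a recombinant cyclase reporter cell assay. Where repeated, individual determinations were averaged.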

Structures can show the parent of a compound that is named as a salt.

With `CC(=O)Nc1cccc(C(CN)NC(=O)c2c(C)nc3c(OCc4c(F)cccc4F)cc(C)cn23)c1` (racemic) [Example 396, rac-N-[1-(3-acetamidophenyl)-2-aminoethyl]-8-[(2,6-difluorobenzyl)oxy]-2,6-dimethylimidazo[1,2-a]pyridine-3-carboxamide], the MEC amounted to 3.00 µM.
For `CCOC(=O)c1cccc(C(CN)NC(=O)c2c(C)nc3c(OCc4c(F)cccc4F)cc(C)cn23)n1` (racemic) [Example 397, rac-ethyl 6-{2-amino-1-[({8-[(2,6-difluorobenzyl)oxy]-2,6-dimethylimidazo[1,2-a]pyridin-3-yl}carbonyl)amino]ethyl}pyridine-2-carboxylate] the value was 1.00 µM; for `Cc1cc(OCc2c(F)cccc2F)c2nc(C)c(C(=O)NC(CN)c3ccc(C#N)cc3)n2c1` (racemic) [Example 398, rac-N-[2-amino-1-(4-cyanophenyl)ethyl]-8-[(2,6-difluorobenzyl)oxy]-2,6-dimethylimidazo[1,2-a]pyridine-3-carboxamide], 0.30 µM; for `COC(=O)c1cccc(C(N)CNC(=O)c2c(C)nc3c(OCc4c(F)cccc4F)cc(C)cn23)c1` (racemic) [Example 399, rac-Methyl 3-{1-amino-2-[({8-[(2,6-difluorobenzyl)oxy]-2,6-dimethylimidazo[1,2-a]pyridin-3-yl}carbonyl)amino]ethyl}benzoate], 1.00 µM.
For `Cc1cc(OCc2c(F)cccc2F)c2nc(C)c(C(=O)NCC(N)C#N)n2c1` (racemic) [Example 400, rac-N-(2-amino-2-cyanoethyl)-8-[(2,6-difluorobenzyl)oxy]-2,6-dimethylimidazo[1,2-a]pyridine-3-carboxamide], the MEC worked out at 0.65 µM.
The same measure for `CC=CCC(N)CNC(=O)c1c(C)nc2c(OCc3c(F)cccc3F)cc(C)cn12` (racemic) [Example 406, rac-N-[(4E/Z)-2-aminohex-4-en-1-yl]-8-[(2,6-difluorobenzyl)oxy]-2,6-dimethylimidazo[1,2-a]pyridine-3-carboxamide]: 0.10 µM; for `CSCCC(N)CNC(=O)c1c(C)nc2c(OCc3c(F)cccc3F)cc(C)cn12` (racemic) [Example 412, rac-N-[2-amino-4-(methylsulfanyl)butyl]-8-[(2,6-difluorobenzyl)oxy]-2,6-dimethylimidazo[1,2-a]pyridine-3-carboxamide]: 0.10 µM.
For `Cc1cc(OCc2c(F)cccc2F)c2nc(C)c(C(=O)NCC(N)CCS(C)(=O)=O)n2c1` (racemic) [Example 413, rac-N-[2-amino-4-(methylsulfonyl)butyl]-8-[(2,6-difluorobenzyl)oxy]-2,6-dimethylimidazo[1,2-a]pyridine-3-carboxamide] the value was 5.5 µM; for `Cc1cc(OCc2c(F)cccc2F)c2nc(C)c(C(=O)NCC3CS(=O)(=O)CCN3)n2c1` (racemic) [Example 414, rac-8-[(2,6-difluorobenzyl)oxy]-N-[(1,1-dioxidothiomorpholin-3-yl)methyl]-2,6-dimethylimidazo[1,2-a]pyridine-3-carboxamide], 0.30 µM; for `Cc1cc(OCc2c(F)cccc2F)c2nc(C)c(C(=O)NCC(N)c3csc(C)n3)n2c1` (racemic) [Example 415, rac-N-[2-amino-2-(2-methyl-1,3-thiazol-4-yl)ethyl]-8-[(2,6-difluorobenzyl)oxy]-2,6-dimethylimidazo[1,2-a]pyridine-3-carboxamide Triformate], 5.5 µM.
For `Cc1cc(OCc2c(F)cccc2F)c2nc(C)c(C(=O)NC(C#N)CN)n2c1` (racemic) [Example 416, rac-N-(2-amino-1-cyanoethyl)-8-[(2,6-difluorobenzyl)oxy]-2,6-dimethylimidazo[1,2-a]pyridine-3-carboxamide] the value was 1.00 µM.
As to `CCOCC(CN)NC(=O)c1c(C)nc2c(OCc3c(F)cccc3F)cccn12` (single isomer, unassigned) [Example 56, ent-N-(1-amino-3-ethoxypropan-2-yl)-8-[(2,6-difluorobenzyl)oxy]-2-methylimidazo[1,2-a]-pyridine-3-carboxamide], the MEC was 1.00 µM.
The same measure for `CCOCC(CN)NC(=O)c1c(C)nc2c(OCc3c(F)cccc3F)cc(Cl)cn12` (single isomer, unassigned) [Example 57, ent-N-(1-amino-3-ethoxypropan-2-yl)-6-chloro-8-[(2,6-difluorobenzyl)oxy]-2-methylimidazo[1,2-a]-pyridine-3-carboxamide]: 0.30 µM; for `Cc1nc2c(OCc3c(F)cccc3F)cccn2c1C(=O)NC(CN)COC(C)C` (single isomer, unassigned) [Example 93, ent-N-(1-Amino-3-isopropoxypropan-2-yl)-8-[(2,6-difluorobenzyl)oxy]-2-methylimidazo[1,2-a]-pyridine-3-carboxamide]: 0.30 µM; for `Cc1nc2c(OCc3c(F)cccc3F)cccn2c1C(=O)NCC(C)CN` (single isomer, unassigned) [Example 95, ent-N-(3-Amino-2-methylpropyl)-8-[(2,6-difluorobenzyl)oxy]-2-methylimidazo[1,2-a]pyridine-3-carboxamide Dihydrochloride]: 1.00 µM.
For `Cc1nc2c(OCc3c(F)cccc3F)cccn2c1C(=O)NCC(C)CN` (single isomer, unassigned) [Example 96, ent-N-(3-Amino-2-methylpropyl)-8-[(2,6-difluorobenzyl)oxy]-2-methylimidazo[1,2-a]pyridine-3-carboxamide Dihydrochloride] the value was 1.00 µM; for `COCC(CN)NC(=O)c1c(C)nc2c(OCc3c(F)cccc3F)cccn12` (single isomer, unassigned) [Example 122, ent-N-(1-Amino-3-methoxypropan-2-yl)-8-[(2,6-difluorobenzyl)oxy]-2-methylimidazo[1,2-a]-pyridine-3-carboxamide Ditrifluoroacetate], 1.00 µM; for `COCC(CN)NC(=O)c1c(C)nc2c(OCc3c(F)cccc3F)cccn12` (single isomer, unassigned) [Example 123, ent-N-(1-Amino-3-methoxypropan-2-yl)-8-[(2,6-difluorobenzyl)oxy]-2-methylimidazo[1,2-a]-pyridine-3-carboxamide Ditrifluoroacetate], 3.00 µM.
Consider `Cc1nc2c(OCc3c(F)cccc3F)cccn2c1C(=O)NCC(N)CC(F)(F)F` (single isomer, unassigned) [Example 126, ent-N-(2-Amino-4,4,4-trifluorobutyl)-8-[(2,6-difluorobenzyl)oxy]-2-methylimidazo[1,2-a]pyridine-3-carboxamide], for which the MEC was determined as 0.30 µM.
For `Cc1nc2c(OCc3c(F)cccc3F)cccn2c1C(=O)NCC(N)CC(F)(F)F` (single isomer, unassigned) [Example 127, ent-N-(2-Amino-4,4,4-trifluorobutyl)-8-[(2,6-difluorobenzyl)oxy]-2-methylimidazo[1,2-a]pyridine-3-carboxamide] the value was 1.00 µM; for `Cc1cc(OCc2c(F)cccc2F)c2nc(C)c(C(=O)NCC(N)CC(F)(F)F)n2c1` (single isomer, unassigned) [Example 128, ent-N-(2-Amino-4,4,4-trifluorobutyl)-8-[(2,6-difluorobenzyl)oxy]-2,6-dimethylimidazo[1,2-a]-pyridine-3-carboxamide], 0.10 µM.
For `Cc1cc(OCc2c(F)cccc2F)c2nc(C)c(C(=O)NCC(N)CC(F)(F)F)n2c1` (single isomer, unassigned) [Example 129, ent-N-(2-Amino-4,4,4-trifluorobutyl)-8-[(2,6-difluorobenzyl)oxy]-2,6-dimethylimidazo[1,2-a]-pyridine-3-carboxamide] the value was 0.10 µM; for `Cc1nc2c(OCc3c(F)cccc3F)cccn2c1C(=O)NC(C)[C@H](C)N` (single isomer, unassigned) [Example 174], 0.30 µM; for `Cc1nc2c(OCc3c(F)cccc3F)cccn2c1C(=O)NC(C)[C@H](C)N` (single isomer, unassigned) [Example 175], 1.00 µM.
